Values joined by “and” are separate entries in the source; they are usually repeats but may differ in a detail not shown here. Equal entries are not always repeated. Where two headings read alike, the source gives them in different places. Marks after values point to notes of the source that are not given here.
Assays:
[1] = test system: desmoglein-1 (DSG1); assay: 3D micro-epidermis model (EpiScreen): desmoglein-1 immunostaining; format: cell-based, human; details: for activation at 0.01 µM / activation at 0.1 µM: Homo sapiens, 72 h; for activation at 0.01 µM: 10 nM, read-out: DSG 10 nM; for DSG-1 expression: Table 1 summary; for activation at 0.1 µM: read-out: DSG 100 nM
Method: (§1) To assess the effects of such therapy molecules on the epidermis, keratinocytes were grown in the presence of kinase inhibitors during 3 days with high calcium concentration to induce keratinocyte differentiation and generate a 3D-stratified differentiated epidermis. Drug impact on the epidermis development was assessed via different keratinocyte markers including: • Ki-67, an universally expressed protein among proliferating cells and absent in the quiescent cells; • Filaggrin, a filament-associated protein that binds to keratin fibers and is a marker of terminal differentiation; • Desmoglein-1, a component of desmosomes and differentiation marker expressed in all epidermal layer above the basal layer; and • Involucrin, an early differentiation marker expressed in the spinous and granular layers and a protein precursor of the epidermal cornified envelope.
(§2) Human epidermal keratinocytes cells (HPEKs) from a juvenile donor (CellnTec, Switzerland) are cultured in flasks in proliferation medium. Keratinocytes are seeded at passage 6 into EpiScreen™ (Abzena, Cambridge, UK) plates containing collagen 1 coated disc micropatterns (CYTOO, Grenoble, France). Four hours later, unattached cells are washed off and a high calcium medium is added to induce keratinocytes differentiation. The day after, keratinocytes are treated with screening compounds, and Trichostatin A is added at 0.3 μM as an internal positive control. After three days of treatment, micro-epidermises are fixed with a formalin solution 10% for 30 minutes, then permeabilized with 0.1% Triton. Several immunostainings are performed: actin (Acti-Stain 555, PHDH1, Cytoskeleton), nuclei (Hoechst, H3570, Invitrogen), and one biomarker of interest per well either anti-involucrin (HPA055211, Sigma), anti-filaggrin (HPA030189, Sigma) or anti-desmoglein-1 (HPA022128, Sigma). Antibodies are added overnight at 4° C. before staining with secondary antibody, anti-rabbit 488 (711-545-152, Jackson) for 2 hours at room temperature.
(§3) Images of each well are acquired with the Operetta HCS platform (Perkin Elmer, Waltham, MA, USA) using a ×10 objective in confocal mode in eight z-planes from 2 μm to 44 μm in steps of 6 μm in each of the 3 channels: actin, nuclei, and one biomarker of interest. The first step of the image analysis consists in detecting micro-epidermis structures on the first z-plane by segmenting the actin staining. Micro-epidermis structures are validated based on several area and roundness min and max criteria. Then, the area of each biomarker staining is measured inside the valid micro-epidermis masks through each z-plane. For all homogeneous biomarker staining, their intensity through the different planes is measured.
(§4) The actin network of each micro-epidermis is analyzed in each z-plane in order to determine the average 3D structure edges. The biomarker intensity is measured in each z-plane for each structure, and then averaged with the other results generated in the same well. Based on the data generated in the two previous steps, an average 3D reconstruction image is generated. It consists of a meshwork that delimits the structure edges, and a color scaled volume that corresponds to the biomarkers distribution and expression.
The effect of 8 oncology molecules, selected from first generation EGFRi and pan-kinase inhibitors which mostly target VEGFR and second and third generation therapies targeting main mutations relating to first generation treatment resistance, were assessed in vitro using a 3D micro-epidermis model. The drug incubation concentrations (3, 10, 30, 100 nM) were selected to reflect the clinically relevant (unbound) drug exposures (Table 2). The drug impact was assessed by analysis of tissue size and keratinocyte proliferation using Ki-67 staining and keratinocyte differentiation using filaggrin, desmoglein-1 and involucrin staining. […]

[2] = test system: filaggrin (FLG); assay: 3D micro-epidermis model (EpiScreen): filaggrin immunostaining; format: cell-based, human; details: for activation at 0.01 µM / activation at 0.1 µM: Homo sapiens, 72 h; for FLG expression: Table 1 summary;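 on all read-outs here: human primary epidermal keratinocytes differentiated in high calcium into 3D micro-epidermises, compound-treated for three days, imaged by confocal high-content microscopy, filaggrin staining intensity quantified within actin-segmented structures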
[3] = cited from earlier work; for Cmax: maximal plasma concentration after a single daily-recommended dose, human; for Unbound concentration: unbound plasma concentration, identified or calculated from Cmax and unbound fraction; for Unbound fraction: unbound to plasma protein
[4] = test system: Human epidermal keratinocytes cells (HPEKs), 3D micro-epidermis; assay: 3D micro-epidermis model (EpiScreen): epidermis size, toxicity, dose response, classification; format: cell-based; details: for effect on desmoglein-1, involucrin and filaggrin expression (dose dependence): 3, 10, 30 nM; for Dose in response: variation of protein expression at 3, 10, 30 nM (EGFRi) or 3, 10, 30, 100 nM (VEGFRi); for Dose in response / Dose/response: markers in brackets; for Dose/response: supplementary table, per run (1st or 2nd Run);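 on all read-outs here: keratinocytes on micropatterned discs in high-calcium medium, drug exposure for three days, then fixation and confocal high-content imaging of actin, nuclei and a marker, vehicle DMSO-matched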
[5] = most frequent cutaneous adverse reaction reported by the FDA Adverse Event Reporting System; cited from earlier work
[6] = test system: involucrin (IVL); assay: 3D micro-epidermis model (EpiScreen): involucrin immunostaining; format: cell-based, human; details: for IVL expression: Table 1 summary; for activation at 0.1 µM: Homo sapiens, 72 h
Method: as §1, §2, §3, §4
The effect of 8 oncology molecules, selected from first generation EGFRi and pan-kinase inhibitors which mostly target VEGFR and second and third generation therapies targeting main mutations relating to first generation treatment resistance, were assessed in vitro using a 3D micro-epidermis model. […] The drug impact was assessed by analysis of tissue size and keratinocyte proliferation using Ki-67 staining and keratinocyte differentiation using filaggrin, desmoglein-1 and involucrin staining.
Size of the epidermis and the expression of the protein junction desmoglein-1 (DSG1), involucrin (IVL) and filaggrin (FLG) was assessed by immunostaining and compared to untreated control. […]

[7] = test system: desmoglein-1 (DSG1); assay: 3D micro-epidermis model (EpiScreen): desmoglein-1 immunostaining; format: cell-based, human; details: 10 μM; supplementary data; Tox = toxic
[8] = 100 nM, supplementary data, Tox = toxic
[9] = 100 nM, supplementary data, two runs, Tox = toxic
[10] = 10 nM, supplementary data, two runs, read-out: FLG 10 nM
[11] = Table 1 summary of drug effect on epidermis
[12] = Table 1 summary, pro-differentiation / pro-proliferation
[13] = Table 3, 30 nM (EGFRi) or 100 nM (VEGFRi), 3 days, vs untreated control, superscript = significance footnote
[14] = Table 3, pro-proliferation or pro-differentiation
[15] = read-out: FLG 10 nM, 10 nM, supplementary data, two runs
[16] = concentration (afatinib 3, 10, 30 nM; pan-kinase inhibitors 100 nM)
[17] = supplementary data, two runs, Tox = toxic

| SMILES | DSG 3 nM ([1]; supplementary data) | DSG 30 nM ([1]; supplementary data) | activation at 0.01 µM ([1]; supplementary data) | DSG-1 expression [1] | FLG 3 nM ([2]; supplementary data) | FLG 30 nM ([2]; supplementary data) | activation at 0.01 µM [2, 10] | FLG expression [2] | Cmax [3] | Unbound fraction [3] | Toxicity at 1 μM ([4]; 1 μM, micro-epidermis) | Epidermis size [4, 11] | Classification [4, 12] | Epidermis size [4, 13] | Classification [4, 14] | Dose in response ([4]; Table 3) | Dose/response [4] | Major Skin Effect [5] | IVL 10 nM ([6]; supplementary data, two runs) | IVL expression [6] | other results |
| --- | --- | --- | --- | --- | --- | --- | --- | --- | --- | --- | --- | --- | --- | --- | --- | --- | --- | --- | --- | --- | --- |
| COc1cc2ncnc(Nc3ccc(F)c(Cl)c3)c2cc1NC(=O)/C=C/CN1CCCCC1 [Dacomitinib] | 10.00% | 54% | 32% | Increased | 8% | 31% | 25% | Increased | 178 nM | 0.24% | Yes | Decreased | Pro-differentiation | Unchanged^4 | Pro- | Yes | Yes (DSG, IVL, | Rash | 31% | Increased | DSG 100 nM [1, 8]: Tox; FLG 100 nM [2, 9]: Tox; Unbound concentration [3]: 0.42 nM and 0.425* nM; effect on desmoglein-1, involucrin and filaggrin expression (dose dependence) [4]: dose-dependent manner; IVL 3 nM ([6]; supplementary data): 15%; IVL 30 nM ([6]; supplementary data): 60%; IVL 100 nM [6, 9]: Tox |
| C#Cc1cccc(Nc2ncnc3cc(OCCOC)c(OCCOC)cc23)c1 [Erlotinib] | −7% | 1% | -2% | Increased | 6% | 10% |  | Increased | 1600 nM | 5% |  | Decreased | Pro-differentiation | Decreased^1 | Pro- | No | No | Papulo-pustular | 16% | Increased | activation at 0.1 µM [1, 8]: 36%; activation at 0.01 µM [2, 15]: 0%; activation at 0.1 µM ([2]; read-out: FLG 100 nM, 100 nM, supplementary data, two runs, Tox = toxic): 34%; Toxicity at 1 μM [4]: Yes; effect on desmoglein-1, involucrin and filaggrin expression (dose dependence) [4]: did not affect; IVL 3 nM ([6]; supplementary data): 13%; IVL 30 nM ([6]; supplementary data): 22%; activation at 0.1 µM [6, 9]: 35% |
| CS(=O)(=O)CCNCc1ccc(-c2ccc3ncnc(Nc4ccc(OCc5cccc(F)c5)c(Cl)c4)c3c2)o1 [Lapatinib] | −6.20% | 29% | 9.6% | Increased | 7% | 20% | 9% | Increased | 516 nM | 1%* |  | Decreased | Pro-differentiation | Unchanged^4 | Pro- | Yes | Yes (DSG, IVL, | Rash | 14% | Increased | activation at 0.1 µM [1, 8]: 47%; activation at 0.1 µM ([2]; 100 nM, supplementary data, two runs, Tox = toxic, read-out: FLG 100 nM): 18%; Unbound concentration [3]: 5.16* nM; Toxicity at 1 μM [4]: Yes; effect on desmoglein-1, involucrin and filaggrin expression (dose dependence) [4]: dose-dependent manner; IVL 3 nM ([6]; supplementary data): 17%; IVL 30 nM ([6]; supplementary data): 30%; activation at 0.1 µM [6, 9]: 48% |
| CNC(=O)c1cc(Oc2ccc(NC(=O)Nc3ccc(Cl)c(C(F)(F)F)c3)cc2)ccn1 [Sorafenib] |  |  | -8% | Unchanged |  |  |  | Decreased | 8180 nM | 0.29% | Yes | Decreased | Pro-proliferation | Decreased^2 | Pro- | No | No | Rash | 6% | Unchanged | DSG 10 μM [7]: Tox; desmoglein-1 expression [1, 16]: do not impact; FLG 10 μM [2, 17]: Tox; activation at 0.01 µM [2, 15]: -22%; IVL 10 μM [6, 17]: Tox; involucrin expression [6, 16]: do not impact |
| CCN(CC)CCNC(=O)c1c(C)[nH]c(/C=C2\C(=O)Nc3ccc(F)cc32)c1C [Sunitinib] |  |  | 15% |  |  |  | -5% |  | 75 nM | 5%* | No |  |  |  |  |  |  | Palmoplantar | 0% |  | DSG 10 μM [7]: 27%; FLG 10 μM [2, 17]: 101%; micro-epidermis size / epidermal volume ([4]; concentration (afatinib 3-30 nM; pan-kinase inhibitors up to 100 nM)): no effect; IVL 10 μM [6, 17]: 24% |
